From patent US20240150321A1, “PYRAZOLYLSULFONAMIDE COMPOUNDS AND THEIR USE IN THERAPY” (HOTSPOT THERAPEUTICS, INC., priority 2022, published 2024)
Where two headings read alike, the source gives them in different places.

How the values were obtained:
Avi-tagged FL MALT-1 = Avi-tagged FL MALT-1 (Homo sapiens (Human), UniProt Q9UDY8); assay: MALT-1 Fluorogenic Peptide Cleavage Assay (MALT1 inhibition assay); assay type: biochemical; details: Ac-LRSR-AMC peptide substrate, 30 min pre-incubation, 90 min reaction at room temperature
How it was run: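 Cleavage of Ac-LRSR-AMC, read as fluorescence at 342/441 nm after 90 min at room temperature, with substrate working stocks of 50 μM (Km) or 280 μM (10×Km). Enzyme, Avi-tagged full-length MALT-1 (40 nM stock), was first pre-incubated 30 min with compound in citrate/HEPES pH 6.89 buffer with TCEP, EDTA, CHAPS and 2% DMSO; IC50 fitted from normalised % inhibition.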

[1] = tested on: NF-kB reporter in Jurkat cells; assay: NF-kB reporter assay in Jurkat cells stimulated with aCD3/aCD28/PMA; assay type: cell-based; details: read-out: NF-kB Reporter Assay IC50
How it was run: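 Luminescence (One-Glo) from the NF-kB reporter yielded IC50 values. Stimulation lasted 4 h at 37° C with aCD3, aCD28 and PMA (final 5, 5 and 0.03 […]), after 1 h compound pre-exposure of 25,000 Jurkat cells per well in serum-free RPMI.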

[2] = Homo sapiens, Jurkat cells, 1 hr compound pre-incubation, aCD3/aCD28/PMA stimulation 4 hr, One-Glo readout
[3] = Jurkat cells, 1 hr compound pre-incubation, aCD3/aCD28/PMA stimulation 4 hr, One-Glo readout

Chain of Avi-tagged FL MALT-1 (Q9UDY8 whole entry): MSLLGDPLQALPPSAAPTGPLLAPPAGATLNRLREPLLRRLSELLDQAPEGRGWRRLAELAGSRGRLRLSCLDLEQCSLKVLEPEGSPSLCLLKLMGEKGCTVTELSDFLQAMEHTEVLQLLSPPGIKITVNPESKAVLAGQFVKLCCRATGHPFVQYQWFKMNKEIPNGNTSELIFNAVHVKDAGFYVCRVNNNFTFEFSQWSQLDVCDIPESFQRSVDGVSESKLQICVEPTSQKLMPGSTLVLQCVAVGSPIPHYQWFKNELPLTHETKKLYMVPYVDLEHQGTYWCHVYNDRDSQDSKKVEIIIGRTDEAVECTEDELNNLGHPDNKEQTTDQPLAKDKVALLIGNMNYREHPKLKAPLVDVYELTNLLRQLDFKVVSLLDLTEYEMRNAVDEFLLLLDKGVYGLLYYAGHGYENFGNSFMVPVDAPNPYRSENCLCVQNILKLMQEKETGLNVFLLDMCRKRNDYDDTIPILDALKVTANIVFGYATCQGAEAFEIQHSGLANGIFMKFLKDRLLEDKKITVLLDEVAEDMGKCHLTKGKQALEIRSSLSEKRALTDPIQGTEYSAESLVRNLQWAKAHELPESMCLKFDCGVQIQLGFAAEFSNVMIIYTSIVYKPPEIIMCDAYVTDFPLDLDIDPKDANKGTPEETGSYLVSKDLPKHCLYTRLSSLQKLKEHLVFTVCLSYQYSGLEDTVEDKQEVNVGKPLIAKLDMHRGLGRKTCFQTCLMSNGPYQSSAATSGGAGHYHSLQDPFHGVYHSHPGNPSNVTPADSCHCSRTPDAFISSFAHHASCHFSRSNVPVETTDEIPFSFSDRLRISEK

| IC50 (Avi-tagged FL MALT-1) [nM] | IC50 [1, 2] [nM] | IC50 [1, 3] [nM] | Structure (SMILES) | IC50 ([1]; Homo sapiens, Jurkat) [nM] |
| --- | --- | --- | --- | --- |
| ≤ 400 |  | < 400 | COc1ccc2cnn(C)c2c1NS(=O)(=O)c1cnn(-c2cc(C(C)O)ccn2)c1 (stereo not shown) [Compound I-339, 1-(4-(1-hydroxyethyl)pyridin-2-yl)-N-(6-methoxy-1-methyl-1H-indazol-7-yl)-1H-pyrazole-4-sulfonamide] |  |
| ≤ 400 | < 400 |  | COc1ccc2cnn(C)c2c1NS(=O)(=O)c1cnn(-c2cc([C@@H](C)O)ccn2)c1 [Compound I-340, (R)-1-(4-(1-hydroxyethyl)pyridin-2-yl)-N-(6-methoxy-1-methyl-1H-indazol-7-yl)-1H-pyrazole-4-sulfonamide] |  |
| > 2500 | < 400 |  | COC[C@@H](OC)c1ccnc(-n2cc(S(=O)(=O)Nc3cccc4cnn(C)c34)cn2)c1 [Compound I-341] |  |
| > 2500 | 400 to 1000 |  | COC[C@H](OC)c1ccnc(-n2cc(S(=O)(=O)Nc3cccc4cnn(C)c34)cn2)c1 [Compound I-342] |  |
| ≤ 400 | 1000 to 2500 |  | C=CC(F)c1ccnc(-n2cc(S(=O)(=O)Nc3c(OC)ccc4cnn(C)c34)cn2)c1 (stereo not shown) [Compound I-343, 1-(4-(1-fluoroallyl)pyridin-2-yl)-N-(6-methoxy-1-methyl-1H-indazol-7-yl)-1H-pyrazole-4-sulfonamide] |  |
| > 2500 | > 2500 |  | CN1CC(O)(c2ccnc(-n3cc(S(=O)(=O)Nc4cccc5cnn(C)c45)cn3)c2)C1 [Compound I-344] |  |
| > 2500 | < 400 |  | C[C@@H]1CN(C)C(=O)N1c1ccnc(-n2cc(S(=O)(=O)Nc3cccc4cnn(C)c34)cn2)c1 [Compound I-348] |  |
| > 2500 | < 400 |  | C[C@H]1CN(C)C(=O)N1c1ccnc(-n2cc(S(=O)(=O)Nc3cccc4cnn(C)c34)cn2)c1 [Compound I-349] |  |
| ≤ 400 | < 400 |  | [2H]C([2H])([2H])n1ncc2cnc(OC)c(NS(=O)(=O)c3cnn(-c4cc(C(F)(F)F)ccn4)c3)c21 [Compound I-352, N-(6-methoxy-1-(methyl-d3)-1H-pyrazolo[4,3-c]pyridin-7-yl)-1-(4-(trifluoromethyl)pyridin-2-yl)-1H-pyrazole-4-sulfonamide] |  |
| > 2500 | < 400 |  | CC1CN(c2ccnc(-n3cc(S(=O)(=O)Nc4cccc5cnn(C)c45)cn3)c2)C1 [Compound I-356, N-(1-methyl-1H-indazol-7-yl)-1-(4-(3-methylazetidin-1-yl)pyridin-2-yl)-1H-pyrazole-4-sulfonamide] |  |
| > 2500 | < 400 |  | Cn1ncc2cccc(NS(=O)(=O)c3cnn(-c4cc(C5(O)CC(F)C5)ccn4)c3)c21 (stereo not shown) [Compound I-358] |  |
| > 2500 | < 400 |  | Cn1ncc2cccc(NS(=O)(=O)c3cnn(-c4cc(C5(O)CC(F)(F)C5)ccn4)c3)c21 [Compound I-359] |  |
| > 2500 | < 400 |  | COC1(c2ccnc(-n3cc(S(=O)(=O)Nc4cccc5cnn(C)c45)cn3)c2)CC(C)C1 (stereo not shown) [Compound I-362, 1-(4-(1-methoxy-3-methylcyclobutyl)pyridin-2-yl)-N-(1-methyl-1H-indazol-7-yl)-1H-pyrazole-4-sulfonamide] |  |
| > 2500 |  | < 400 | COC1(c2ccnc(-n3cc(S(=O)(=O)Nc4cccc5cnn(C)c45)cn3)c2)CC(C)C1 (stereo not shown) [Compound I-363, 1-(4-(1-methoxy-3-methylcyclobutyl)pyridin-2-yl)-N-(1-methyl-1H-indazol-7-yl)-1H-pyrazole-4-sulfonamide] |  |
| > 2500 | < 400 |  | Cn1ncc2cccc(NS(=O)(=O)c3cnn(-c4cc(N5CC(C)(C)C5)ccn4)c3)c21 [Compound I-367] |  |
| > 2500 | < 400 |  | COc1ccc2cnn(C)c2c1NS(=O)(=O)c1cnn(-c2cc(N3CC(C)C3)ccn2)c1 [Compound I-369] |  |
| > 2500 | < 400 |  | COc1ccc2cnn(C)c2c1NS(=O)(=O)c1cnn(-c2cc(N3CC(C)(C)C3)ccn2)c1 [Compound I-370, 1-[4-(3,3-dimethylazetidin-1-yl)pyridin-2-yl]-N-(6-methoxy-1-methylindazol-7-yl)pyrazole-4-sulfonamide] |  |
| > 2500 | < 400 |  | COc1ccc2cnn(C)c2c1NS(=O)(=O)c1cnn(-c2cc(N3CC4(CC4)C3)ccn2)c1 [Compound I-371, 1-(4-(5-azaspiro[2.3]hexan-5-yl)pyridin-2-yl)-N-(6-methoxy-1-methyl-1H-indazol-7-yl)-1H-pyrazole-4-sulfonamide] |  |
| 1000 to 2500 | < 400 |  | COc1ccc2cnn(C)c2c1NS(=O)(=O)c1cnn(-c2cc(N3CCCCC3)ccn2)c1 [Compound I-372] |  |
| > 2500 | < 400 |  | Cn1ncc2cccc(NS(=O)(=O)c3cnn(-c4cc(C5CC(O)C5)ccn4)c3)c21 (stereo not shown) [Compound I-374, 1-(4-(3-hydroxycyclobutyl)pyridin-2-yl)-N-(1-methyl-1H-indazol-7-yl)-1H-pyrazole-4-sulfonamide] |  |

The remaining lines, values behind:

| Structure (SMILES) | IC50 (Avi-tagged FL MALT-1) [nM] | IC50 [1, 2] [nM] | IC50 [1, 3] [nM] | IC50 ([1]; Homo sapiens, Jurkat) [nM] |
| --- | --- | --- | --- | --- |
| [2H]c1cnc(-n2cc(S(=O)(=O)Nc3cccc4cnn(C([2H])([2H])[2H])c34)cn2)cc1C(F)(F)F [Compound I-338, N-(1-(methyl-d3)-1H-indazol-7-yl)-1-(4-(trifluoromethyl)pyridin-2-yl-5-d)-1H-pyrazole-4-sulfonamide] | ≤ 400 | < 400 |  |  |
| CN1CCC(n2cc(S(=O)(=O)Nc3cccc4cnn(C)c34)cn2)CC1 [Compound I-345] | > 2500 | 400 to 1000 |  |  |
| C[C@H]1CN(c2ccnc(-n3cc(S(=O)(=O)Nc4cccc5cnn(C)c45)cn3)c2)C(=O)N1C [Compound I-346] | > 2500 | < 400 |  |  |
| C[C@@H]1CN(c2ccnc(-n3cc(S(=O)(=O)Nc4cccc5cnn(C)c45)cn3)c2)C(=O)N1C [Compound I-347, (R)-1-(4-(3,4-dimethyl-2-oxoimidazolidin-1-yl)pyridin-2-yl)-N-(1-methyl-1H-indazol-7-yl)-1H-pyrazole-4-sulfonamide] | > 2500 | < 400 |  |  |
| CN1C[C@H](n2cc(S(=O)(=O)Nc3cccc4cnn(C)c34)cn2)CCC1=O [Compound I-350] | > 2500 | > 2500 |  |  |
| CN1C[C@@H](n2cc(S(=O)(=O)Nc3cccc4cnn(C)c34)cn2)CCC1=O [Compound I-351] | > 2500 | > 2500 |  |  |
| [2H]c1nn(C([2H])([2H])[2H])c2c(NS(=O)(=O)c3cnn(-c4cc(C(F)(F)F)ccn4)c3)cccc12 [Compound I-353, N-(1-(methyl-d3)-1H-indazol-7-yl-3-d)-1-(4-(trifluoromethyl)pyridin-2-yl)-1H-pyrazole-4-sulfonamide] | ≤ 400 | < 400 |  |  |
| [2H]C([2H])([2H])n1ncc2cnc(OC)c(N(C)S(=O)(=O)c3cnn(-c4cc(C(F)(F)F)ccn4)c3)c21 [Compound I-354, N-(6-methoxy-1-(methyl-d3)-1H-pyrazolo[4,3-c]pyridin-7-yl)-N-methyl-1-(4-(trifluoromethyl)pyridin-2-yl)-1H-pyrazole-4-sulfonamide] | ≤ 400 | < 400 |  |  |
| O=S(=O)(c1cnn(-c2cc(C(F)(F)F)ccn2)c1)N1CCn2ncc3cccc1c32 [Compound I-355, 1-((1-(4-(trifluoromethyl)pyridin-2-yl)-1H-pyrazol-4-yl)sulfonyl)-2,3-dihydro-1H-pyrazolo[1,5,4-de]quinoxaline] | > 2500 |  |  | > 2500 |
| C=Cn1cc2cccc(NS(=O)(=O)c3cnn(-c4cc(C(F)(F)F)ccn4)c3)c2n1 [Compound I-357, 1-(4-(trifluoromethyl)pyridin-2-yl)-N-(2-vinyl-2H-indazol-7-yl)-1H-pyrazole-4-sulfonamide] | > 2500 | > 2500 |  |  |
| Cn1ncc2cccc(NS(=O)(=O)c3cnn(-c4cc(C5(F)CC(F)C5)ccn4)c3)c21 (stereo not shown) [Compound I-366, 1-(4-(1,3-difluorocyclobutyl)pyridin-2-yl)-N-(1-methyl-1H-indazol-7-yl)-1H-pyrazole-4-sulfonamide] | > 2500 |  | < 400 |  |
| Cn1ncc2cccc(NS(=O)(=O)c3cnn(-c4cc(N5CC6(CC6)C5)ccn4)c3)c21 [Compound I-368, 1-(4-{5-azaspiro[2.3]hexan-5-yl}pyridin-2-yl)-N-(1-methylindazol-7-yl)pyrazole-4-sulfonamide] | > 2500 | < 400 |  |  |
| COc1ccc2cnn(C)c2c1NS(=O)(=O)c1cnn(-c2cc(N3CCC3)ccn2)c1 [Compound I-373, 1-(4-(azetidin-1-yl)pyridin-2-yl)-N-(6-methoxy-1-methyl-1H-indazol-7-yl)-1H-pyrazole-4-sulfonamide] | ≤ 400 |  |  | < 400 |
| Cn1ncc2cccc(NS(=O)(=O)c3cnn(-c4cc(N5CC6CC6C5)ccn4)c3)c21 (stereo not shown) [Compound I-375, 1-(4-(3-Azabicyclo[3.1.0]Hexan-3-yl)Pyridin-2-yl)-N-(1-Methyl-1H-Indazol-7-yl)-1H-Pyrazole-4-Sulfonamide] | > 2500 | < 400 |  |  |
| Cn1ncc2cccc(NS(=O)(=O)c3cnn(-c4cc(C5(F)CC(F)C5)ccn4)c3)c21 (stereo not shown) [Compound I-376, 1-(4-(1,3-difluorocyclobutyl)pyridin-2-yl)-N-(1-methyl-1H-indazol-7-yl)-1H-pyrazole-4-sulfonamide] | > 2500 |  | < 400 |  |
